Assay results as given in US20240043435A1, “TYK-2 INHIBITOR” (BEIGENE, LTD., priority 2020, published 2024).

Molecular target: T1, TYK2-JH2 (aa 575-869, in-house) protein (Homo sapiens, UniProt P29597)
T1 construct: TYK2-JH2 (aa 575-869, in-house) protein; made in house
Assay: TYK2-JH2 biochemical assay (HTRF probe displacement)
Format: binding
Details: Biochemical assay; read-out: TYK2-JH2 IC50
Protocol: Assay A: TYK2-JH2 Biochemical Assay
Compounds disclosed herein were tested for blocking of TYK2-JH2 (aa 575-869, in-house) protein with its probe in an assay based on Homogeneous Time Resolved Fluorescence. Compound dilution is done according to the following protocol: (1) Prepare 500× compounds solution in DMSO from 500 uM by 5-fold dilution, total 10 doses were included; (2) Prepare 10× compounds solution in an assay buffer containing 20 mM HEPES, pH 7.5, 10 mM MgCl2, 0.005% BSA, 2 mM DTT, 0.015% Brij-35 by transferring 1 μl serial 500× stock solution into 49 μl assay buffer. […] of 0.2 nM recombinant TYK2-JH2 protein was pre-incubated with 1 μl of 10× serial dilution of compounds at room temperature for 0.5 hour. […] The HTRF signals (ex337 nm, em620 nm/665 nm) were read on BMG PHERAstar FS instrument. The inhibition percentage of TYK2 interaction with its probe in presence of increasing concentrations of compounds was calculated based on the ratio of fluorescence at 615 nm to that at 665 nm. The IC50 for each compound was derived from fitting the data to the four-parameter logistic equation by Dotmatics.

T1 sequence (P29597 575-869): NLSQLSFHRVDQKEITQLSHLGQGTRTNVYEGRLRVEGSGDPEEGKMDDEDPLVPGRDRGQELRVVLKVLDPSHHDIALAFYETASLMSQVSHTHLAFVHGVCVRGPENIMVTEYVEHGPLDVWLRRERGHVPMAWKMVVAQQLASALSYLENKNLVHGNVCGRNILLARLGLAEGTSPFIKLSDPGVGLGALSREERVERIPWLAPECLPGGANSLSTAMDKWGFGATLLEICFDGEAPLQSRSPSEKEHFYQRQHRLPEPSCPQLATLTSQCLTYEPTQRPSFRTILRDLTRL

| Structure (SMILES) | IC50 |
| --- | --- |
| CC(=O)Nc1cc(Nc2cc(C(F)(F)F)cc(S(C)(=O)=O)c2)c(-c2ccc(F)cn2)cn1 [Example F13, N-(5-fluoro-4′-((3-(methylsulfonyl)-5-(trifluoromethyl)phenyl)amino)-[2,3′-bipyridin]-6′-yl)acetamide] | 0.21 nM |
| CC(=O)Nc1cc(Nc2cc(OC(C)C)cc(S(C)(=O)=O)c2)c(-c2ccc(F)cn2)cn1 [Example F14, N-(5-fluoro-4′-((3-isopropoxy-5-(methylsulfonyl)phenyl)amino)-[2,3′-bipyridin]-6′-yl)acetamide] | 0.13 nM |
| CC(=O)Nc1cc(Nc2cc(O[C@H]3C[C@H](O)C3)cc(S(C)(=O)=O)c2)c(-c2ccc(F)cn2)cn1 [Example F15, N-(5-fluoro-4′-((3-((trans)-3-hydroxycyclobutoxy)-5-(methylsulfonyl)phenyl)amino)-[2,3′-bipyridin]-6′-yl)acetamide] | 0.073 nM |
| COCCOc1cc(Nc2cc(NC(C)=O)ncc2-c2ccc(F)cn2)nc(S(C)(=O)=O)c1 [Example F16, N-(5-fluoro-4′-((4-(2-methoxyethoxy)-6-(methylsulfonyl)pyridin-2-yl)amino)-[2,3′-bipyridin]-6′-yl)acetamide] | 0.027 nM |
| CC(=O)Nc1cc(Nc2cc(OC(C)C)cc(S(C)(=O)=O)n2)c(-c2ccc(F)cn2)cn1 [Example F18, N-(5-fluoro-4′-((4-isopropoxy-6-(methylsulfonyl)pyridin-2-yl)amino)-[2,3′-bipyridin]-6′-yl)acetamide] | 0.052 nM |
| COc1cc(Nc2cc(NC(C)=O)ncc2-c2ccc(C(C)(C)O)cn2)cc(S(C)(=O)=O)c1 [Example H4, N-(5-(2-hydroxypropan-2-yl)-4′-((3-methoxy-5-(methylsulfonyl)phenyl)amino)-[2,3′-bipyridin]-6′-yl)acetamide] | 0.047 nM |
| CC(=O)Nc1cc(Nc2cc(C(F)(F)F)cc(S(C)(=O)=O)c2)c(-c2ccn(C)n2)cn1 [Example J33, N-(5-(1-methyl-1H-pyrazol-3-yl)-4-((3-(methylsulfonyl)-5-(trifluoromethyl)phenyl)amino)pyridin-2-yl)acetamide] | 0.12 nM |
| CC(=O)Nc1cc(Nc2nc(S(C)(=O)=O)ccc2OC(C)C)c(-c2ccn(C)n2)cn1 [Example J49, N-(4-((3-isopropoxy-6-(methylsulfonyl)pyridin-2-yl)amino)-5-(1-methyl-1H-pyrazol-3-yl)pyridin-2-yl)acetamide] | 0.13 nM |
| CCn1ccc(-c2cnc(NC(C)=O)cc2Nc2cc(C#N)cc(S(C)(=O)=O)c2)n1 [Example M10, N-(4-((3-cyano-5-(methylsulfonyl)phenyl)amino)-5-(1-ethyl-1H-pyrazol-3-yl)pyridin-2-yl)acetamide] | 0.099 nM |
| CCn1ccc(-c2cnc(NC(C)=O)cc2Nc2cc(C(F)(F)F)cc(S(C)(=O)=O)c2)n1 [Example M13, N-(5-(1-ethyl-1H-pyrazol-3-yl)-4-((3-(methylsulfonyl)-5-(trifluoromethyl)phenyl)amino)pyridin-2-yl)acetamide] | 0.11 nM |
| CCn1ccc(-c2cnc(NC(C)=O)cc2Nc2cc(OCC3CC3)cc(S(C)(=O)=O)c2)n1 [Example M16, N-(4-((3-(cyclopropylmethoxy)-5-(methylsulfonyl)phenyl)amino)-5-(1-ethyl-1H-pyrazol-3-yl)pyridin-2-yl)acetamide] | 0.048 nM |
| CC(=O)Nc1cc(Nc2cc(C(F)(F)F)cc(S(C)(=O)=O)c2)c(-c2ccn([C@@H]3CCOC3)n2)cn1 [Example M32, (R)-N-(4-((3-(methylsulfonyl)-5-(trifluoromethyl)phenyl)amino)-5-(1-(tetrahydrofuran-3-yl)-1H-pyrazol-3-yl)pyridin-2-yl)acetamide] | 0.074 nM |
| CC(=O)Nc1cc(Nc2cc(OC(C)C)cc(S(C)(=O)=O)n2)c(-c2ccc3nccn3n2)cn1 [Example Q5, N-(5-(imidazo[1,2-b]pyridazin-6-yl)-4-((4-isopropoxy-6-(methylsulfonyl)pyridin-2-yl)amino)pyridin-2-yl)acetamide] | 0.065 nM |
| CC(=O)Nc1cc(Nc2cc(OCC3COCCO3)cc(S(C)(=O)=O)n2)c(-c2ccc3c(n2)OC(C)(C)CO3)cn1 (centres unmarked) [Example Q27, N-(4-((4-((1,4-dioxan-2-yl)methoxy)-6-(methylsulfonyl)pyridin-2-yl)amino)-5-(3,3-dimethyl-2,3-dihydro-[1,4]dioxino[2,3-b]pyridin-6-yl)pyridin-2-yl)acetamide] | 0.033 nM |
| CC(=O)Nc1cc(Nc2cc(C(C)(C)O)cc(S(C)(=O)=O)n2)c(-c2ccc3c(n2)OC(C)(C)CO3)cn1 [Example Q29, N-(5-(3,3-dimethyl-2,3-dihydro-[1,4]dioxino[2,3-b]yridine-6-yl)-4-((4-(2-hydroxypropan-2-yl)-6-(methylsulfonyl)pyridine-2-yl)amino)pyridine-2-yl)acetamide] | 0.037 nM |
| CC(=O)Nc1cc(Nc2cc(C)c(F)c(S(C)(=O)=O)n2)c(-c2ccc3c(n2)OC(C)(C)CO3)cn1 [Example Q30, N-(5-(3,3-dimethyl-2,3-dihydro-[1,4]dioxino[2,3-b]pyridine-6-yl)-4-((5-fluoro-4-methyl-6-(methylsulfonyl)pyridine-2-yl)amino)pyridine-2-yl)acetamide] | 0.065 nM |
| CC(=O)Nc1cc(Nc2cc(N3CCC(C)(O)CC3)cc(S(C)(=O)=O)n2)c(-c2ccc3c(n2)OCC(C)(C)O3)cn1 [Example Q55, N-(5-(2,2-dimethyl-2,3-dihydro-[1,4]dioxino[2,3-b]pyridin-6-yl)-4-((4-(4-hydroxy-4-methylpiperidin-1-yl)-6-(methylsulfonyl)pyridin-2-yl)amino)pyridin-2-yl)acetamide] | 0.019 nM |
| CC(=O)Nc1cc(Nc2cc(N3CC(C)(O)C3)cc(S(C)(=O)=O)n2)c(-c2ccc3c(n2)OCC(C)(C)O3)cn1 [Example Q56, N-(5-(2,2-dimethyl-2,3-dihydro-[1,4]dioxino[2,3-b]pyridin-6-yl)-4-((4-(3-hydroxy-3-methylazetidin-1-yl)-6-(methylsulfonyl)pyridin-2-yl)amino)pyrid-in-2-yl)acetamide] | 0.031 nM |
| CC(=O)Nc1cc(Nc2cc(N3CCC(C)(O)C3)cc(S(C)(=O)=O)n2)c(-c2ccc3c(n2)OCC(C)(C)O3)cn1 (centres unmarked) [Example Q57, N-(5-(2,2-dimethyl-2,3-dihydro-[1,4]dioxino[2,3-b]pyridin-6-yl)-4-((4-(3-hydroxy-3-methylpyrrolidin-1-yl)-6-(methylsulfonyl)pyridin-2-yl)amino)pyridin-2-yl) acetamide] | 0.031 nM |
| CC(=O)Nc1cc(Nc2cc(C3CCOCC3)cc(S(C)(=O)=O)n2)c(-c2ccc3c(n2)OCC(C)(C)O3)nn1 [Example Q58, N-(6-(2,2-dimethyl-2,3-dihydro-[1,4]dioxino[2,3-b]pyridin-6-yl)-5-((6-(methylsulfonyl)-4-(tetrahydro-2H-pyran-4-yl)pyridin-2-yl)amino)pyridazin-3-yl)acetamide] | 0.097 nM |
| CC(=O)Nc1cc(Nc2cc(N3CC[C@@H](OCCO)C3)cc(S(C)(=O)=O)n2)c(-c2ccc3c(n2)OCC(C)(C)O3)cn1 [Example Q59, (R)-N-(5-(2,2-dimethyl-2,3-dihydro-[1,4]dioxino[2,3-b]pyridin-6-yl)-4-((4-(3-(2-hydroxyethoxy)pyrrolidin-1-yl)-6-(methylsulfonyl)pyridin-2-yl)amino)pyridin-2-yl) acetamide] | 0.033 nM |
| CC(=O)Nc1cc(Nc2cc(C3CCN(CC(F)(F)F)CC3)cc(S(C)(=O)=O)n2)c(-c2ccc3c(n2)OCC(C)(C)O3)cn1 [Example Q60, N-(5-(2,2-dimethyl-2,3-dihydro-[1,4]dioxino[2,3-b]pyridin-6-yl)-4-((6-(methylsulfonyl)-4-(1-(2,2,2-trifluoroethyl)piperidin-4-yl)pyridin-2-yl)amino)pyridin-2-yl) acetamide] | 0.059 nM |
| CC(=O)Nc1cc(Nc2cc(N3CC[C@H](OCCO)C3)cc(S(C)(=O)=O)n2)c(-c2ccc3c(n2)OCC(C)(C)O3)cn1 [Example Q61, (S)-N-(5-(2,2-dimethyl-2,3-dihydro-[1,4]dioxino[2,3-b]pyridin-6-yl)-4-((4-(3-(2-hydroxyethoxy)pyrrolidin-1-yl)-6-(methylsulfonyl)pyridin-2-yl)amino)pyridin-2-yl)acetamide] | 0.022 nM |
| CC(=O)Nc1cc(Nc2ccc(C3CCOCC3)c(S(C)(=O)=O)n2)c(-c2ccc3c(n2)OCC(C)(C)O3)cn1 [Example Q79, N-(5-(2,2-dimethyl-2,3-dihydro-[1,4]dioxino[2,3-b]pyridin-6-yl)-4-((6-(methylsulfonyl)-5-(tetrahydro-2H-pyran-4-yl)pyridin-2-yl)amino)pyridin-2-yl)acetamide] | 0.32 nM |
| CC(=O)Nc1cc(Nc2cc(C3CCOC3)cc(S(C)(=O)=O)n2)c(-c2ccc3c(n2)OCC(C)(C)O3)cn1 (centres unmarked) [Example Q86, N-(5-(2,2-dimethyl-2,3-dihydro-[1,4]dioxino[2,3-b]pyridin-6-yl)-4-((6-(methylsulfonyl)-4-(tetrahydrofuran-3-yl)pyridin-2-yl)amino)pyridin-2-yl)acetamde] | 0.031 nM |
| CC(=O)Nc1cc(Nc2cc(-c3c(C)noc3C)cc(S(C)(=O)=O)n2)c(-c2ccc3c(n2)OCC(C)(C)O3)cn1 [Example Q99, N-(5-(2,2-dimethyl-2,3-dihydro-[1,4]dioxino[2,3-b]pyridin-6-yl)-4-((4-(3,5-dimethylisoxazol-4-yl)-6-(methylsulfonyl)pyridin-2-yl)amino)pyridin-2-yl)acetamide] | 0.033 nM |
